Four compounds from patent US7407775B2, “Method for identifying Listeria monocytogenes and culture medium” (Biomerieux S.A., priority 2000, dated 2008) can be followed below.

Holding throughout (format): cell-based
Common to all, as to design: key: —: the symbol “-” corresponds to the absence of color or intensity; 0 corresponds to no activity; 0.1 corresponds to a trace of color; 0.5 corresponds to very pale coloration; 1 corresponds to clear but low-intensity coloration; 1.5 corresponds to a degree of coloration intermediate between scores 1 and 2; 2 corresponds to clear coloration of moderate intensity; 2.5 corresponds to a degree of coloration intermediate between scores 2 and 3; 3 corresponds to intense coloration; 3.5 corresponds to a degree of coloration intermediate between scores 3 and 4; 4 corresponds to very intense coloration

The test system of assay [1] is Listeria innocua ATCC 33090. The assay can be described thus: Experiment 2: octanoate esterase substrates with different Indoxyl-based chromogenic markers. As to conditions: 37° C., substrate 250 mg/l. The protocol: (§1) In Table 1 above, as in the following Tables, C represents the color of the colonies after incubation, I represents the intensity of the color, and the symbol “-” corresponds to the absence of color or intensity; finally, IT defines the incubation time. It should be noted that the intensity of the color is scored on an arbitrary scale but one which is consistent for all the biological specimens and media tested. This scale is valid for this experiment as well as all those that follow. It can be defined in the following way: • 0 corresponds to no activity, • 0.1 corresponds to a trace of color, • 0.5 corresponds to very pale coloration, • 1 corresponds to clear but low-intensity coloration, • 1.5 corresponds to a degree of coloration intermediate between scores 1 and 2, • 2 corresponds to clear coloration of moderate intensity, • 2.5 corresponds to a degree of coloration intermediate between scores 2 and 3, • 3 corresponds to intense coloration, • 3.5 corresponds to a degree of coloration intermediate between scores 3 and 4, • 4 corresponds to very intense coloration.
(§2) A stock solution of each substrate at a concentration of 40 g/l was made up in a mixture of 40% Dimethylsulfoxide and 60% Tween 20. An appropriate volume was added to four Columbia-type media while cooling to give a final substrate concentration of 250 mg/l. These dishes were divided into three areas and then each area was inoculated with a suspension (density=0.5 McFarland) of microorganisms taken from either the Applicant's own collection or the ATCC. The dishes were incubated for 48 hours at 37° C. The colonies which grew were examined by eye after 24 and 48 hours of incubation. Both the color and the intensity of the color of the colonies were recorded.

The subject of another assay is Listeria ivanovii 025. The description is as above. To be noted: 37° C., substrate 250 mg/l. The procedure:
as §1, §2

The next assay relates to Listeria ivanovii 018. The description is as above. As to conditions: 37° C., substrate 250 mg/l. The protocol: as §1, §2
The test system of a further assay is Listeria welshimeri 023. As to the kind of experiment: Experiment 3: detecting an esterase activity in liquid medium (API-type strips). As to conditions: 37° C. The protocol:
as §1
(§3) These substrates were lyophilized in the wells of API-type strips (Registered Trademark). Before use, the substrates contained in the wells were resuspended in an agar-free Columbia-type inoculation medium. These wells were then inoculated with a suspension (density=2 McFarland) of microorganisms taken from either the Applicant's own collection or the ATCC. The strips were incubated for 8 hours at 37° C. The colonies which grew were examined by eye after 4, 6 and 8 hours of incubation.
(§4) The intensity of the color of the colonies was recorded.

A further assay has as its system Listeria innocua 171. Described as above. To be noted: 37° C. The protocol:
as §1, §3, §4

For the next assay, the system named is Listeria innocua 166. The assay is described as above. To be noted: 37° C. The protocol: as §1, §3, §4

On to `CCCCCCCC(=O)Oc1c[nH]c2ccc(Br)cc12` [Blue-C8, 5-Bromo-3-indolyl octanoate], for which the “C (color of the colonies)” value in assay [1] (IT 24 h) is given as “gray”; in assay [1] (IT 48 h), “gray”; in the assay with Listeria ivanovii 025 (IT 24 h), “—”; in the assay on Listeria ivanovii 025 (IT 48 h) it was “—”; with Listeria ivanovii 018 (IT 24 h), “—”; in the assay on Listeria ivanovii 018 (IT 48 h), “—”. Moreover, the “I (intensity of the color)” value was 0.3 in assay [1] (IT 24 h); 0.5 in assay [1] (IT 48 h); “—” with Listeria ivanovii 025 (IT 24 h); “—” in the assay on Listeria ivanovii 025 (IT 48 h); “—” in the assay on Listeria ivanovii 018 (IT 24 h); “—” in the assay with Listeria ivanovii 018 (IT 48 h).
`CCCCCCCC(=O)Oc1c[nH]c2cc(Cl)c(Br)cc12` [Magenta-C8, 5-Bromo-6-chloro-3-indolyl octanoate]: the “I (intensity of the color)” value with Listeria welshimeri 023 (IT 4 h), in the assay with Listeria welshimeri 023 (IT 6 h), with Listeria welshimeri 023 (IT 8 h), in the assay with Listeria innocua 171 (IT 4 h), in the assay with Listeria innocua 171 (IT 6 h) and in the assay on Listeria innocua 171 (IT 8 h) was “—” each time. For the same compound, the “I (intensity of the color)” value in the assay on Listeria innocua 166 (IT 4 h) is reported as “—”; in the assay with Listeria innocua 166 (IT 6 h), “—”; in the assay on Listeria innocua 166 (IT 8 h) it was “—”; in assay [1] (IT 24 h), 1; in assay [1] (IT 48 h) it was 2; with Listeria ivanovii 025 (IT 24 h), “—”. The “I (intensity of the color)” value in the assay with Listeria ivanovii 025 (IT 48 h), with Listeria ivanovii 018 (IT 24 h) and in the assay on Listeria ivanovii 018 (IT 48 h) was “—” in each case. Also, the “C (color of the colonies)” value is reported as “purple” in assay [1] (IT 24 h); “purple” in assay [1] (IT 48 h); “—” in the assay on Listeria ivanovii 025 (IT 24 h); “—” in the assay with Listeria ivanovii 025 (IT 48 h); “—” with Listeria ivanovii 018 (IT 24 h); “—” in the assay with Listeria ivanovii 018 (IT 48 h).
As for `CCCCCCCC(=O)Oc1c[nH]c2cc(Cl)ccc12` [Pink-C8, 6-Chloro-3-indolyl octanoate], the “I (intensity of the color)” value with Listeria welshimeri 023 (IT 4 h), with Listeria welshimeri 023 (IT 6 h), with Listeria welshimeri 023 (IT 8 h), in the assay on Listeria innocua 171 (IT 4 h), in the assay with Listeria innocua 171 (IT 6 h) and in the assay on Listeria innocua 171 (IT 8 h) was “—” throughout. Also, the “I (intensity of the color)” value in the assay on Listeria innocua 166 (IT 4 h) is listed as “—”; in the assay on Listeria innocua 166 (IT 6 h), “—”; in the assay on Listeria innocua 166 (IT 8 h), “—”; in assay [1] (IT 24 h) it was “—”; in assay [1] (IT 48 h), 0.5; with Listeria ivanovii 025 (IT 24 h) it was “—”. Also, the “I (intensity of the color)” value in the assay on Listeria ivanovii 025 (IT 48 h), in the assay on Listeria ivanovii 018 (IT 24 h) and with Listeria ivanovii 018 (IT 48 h) was “—” throughout. The “C (color of the colonies)” value was “—” in assay [1] (IT 24 h); “pink” in assay [1] (IT 48 h); “—” in the assay on Listeria ivanovii 025 (IT 24 h); “—” in the assay on Listeria ivanovii 025 (IT 48 h); “—” with Listeria ivanovii 018 (IT 24 h); “—” with Listeria ivanovii 018 (IT 48 h).
On to `CCCCCCCC(=O)Oc1c[nH]c2ccc(Br)c(Cl)c12` [X-C8, 5-Bromo-4-chloro-3-indolyl octanoate], for which the “I (intensity of the color)” value in the assay with Listeria welshimeri 023 (IT 4 h), in the assay with Listeria welshimeri 023 (IT 6 h), in the assay with Listeria welshimeri 023 (IT 8 h), in the assay on Listeria innocua 171 (IT 4 h), in the assay on Listeria innocua 171 (IT 6 h) and in the assay on Listeria innocua 171 (IT 8 h) was “—” in each case. For the same compound, the “I (intensity of the color)” value is recorded as “—” in the assay on Listeria innocua 166 (IT 4 h); “—” with Listeria innocua 166 (IT 6 h); “—” in the assay with Listeria innocua 166 (IT 8 h); 0.3 in assay [1] (IT 24 h); 0.5 in assay [1] (IT 48 h); “—” with Listeria ivanovii 025 (IT 24 h). For the same compound, the “I (intensity of the color)” value in the assay on Listeria ivanovii 025 (IT 48 h), with Listeria ivanovii 018 (IT 24 h) and in the assay on Listeria ivanovii 018 (IT 48 h) was “—” throughout. Besides, the “C (color of the colonies)” value in assay [1] (IT 24 h) is given as “turquoise”; in assay [1] (IT 48 h), “turquoise”; in the assay with Listeria ivanovii 025 (IT 24 h) it was “—”; in the assay with Listeria ivanovii 025 (IT 48 h), “—”; in the assay with Listeria ivanovii 018 (IT 24 h) it was “—”; with Listeria ivanovii 018 (IT 48 h), “—”.
